Consider one molecule from patent publication US3983102A, “Process for preparing 5"-amino-4',5"-dideoxybutirosin A” (Parke, Davis & Company, priority 1975, dated 1976).

Values after ≈ are worked out from the molar mass of the structure shown.

Common to all, as to experiment: in vitro antibacterial screening, MIC by microtitration in TSB
Format in all cases: cell-based

One assay relates to Pseudo. aerug. Aquilar. To be noted: Pseudomonas aeruginosa, butirosin resistant. The source says: (§1) They show activity when tested by well-recognized in vitro antibacterial screening procedures.
A further assay concerns Pseudo. aerug. No. 28. To be noted: Pseudomonas aeruginosa.
Description: as §1

A further assay relates to Pseudo. aerug. 74C-1. To be noted: Pseudomonas aeruginosa.
Description: as §1

For the next assay, the system named is Pseudo. aerug. 130. The note with it: Pseudomonas aeruginosa, Pseudo. aerug. 130, gentamicin resistant.
Description: as §1

The subject of a further assay is Serr. marcescens IMM-5. The note with it: Serratia marcescens, IMM5.
Description: as §1

The subject of another assay is Entero. cloacae IMM-50. To be noted: Enterobacter cloacae, IMM50.
Description: as §1

The next assay relates to Esch. coli JR-76.2. The note with it: Escherichia coli, JR76.2.
Description: as §1

Another assay relates to Pseudo. aerug. G-76. The note with it: Pseudomonas aeruginosa, Pseudo. aerug. G-76, butirosin and gentamicin resistant.
Description: as §1

Another assay concerns Pseudo. aerug. 58.38. The note with it: Pseudomonas aeruginosa.
Description: as §1

A further assay has as its system Staph aureus S18713. To be noted: Staphylococcus aureus, Staph aureus S18713, butirosin resistant.
Description: as §1

In a further assay the test system is Pseudo. aerug. VAD12-7-7. To be noted: Pseudomonas aeruginosa.
Description: as §1

Another assay relates to Pseudo. aerug. 733. To be noted: Pseudomonas aeruginosa.
Description: as §1

In the next assay the test system is Klebs. pneumoniae MGH-1. The note with it: Klebsiella pneumoniae, MGH1.
Description: as §1

The subject of the next assay is Pseudo. aerug. UI-18. The note with it: Pseudomonas aeruginosa.
Description: as §1

The test system of another assay is Pseudo. aerug. LA-3399. To be noted: Pseudomonas aeruginosa.
Description: as §1

In the case of `NCC[C@H](O)C(=O)N[C@@H]1C[C@H](N)[C@@H](O[C@H]2O[C@H](CN)C[C@H](O)[C@H]2N)[C@H](O[C@@H]2O[C@H](CN)[C@H](O)[C@H]2O)[C@H]1O` [I carbonate, 5"-amino-4',5"-dideoxybutirosin A], the MIC was found to be 25 µg/mL (≈ 46.4 µM) with Pseudo. aerug. Aquilar; 3.1 µg/mL (≈ 5.76 µM) against Pseudo. aerug. No. 28; 3.1 µg/mL (≈ 5.76 µM) against Pseudo. aerug. 74C-1; 6.3 µg/mL (≈ 11.7 µM) in the assay with Pseudo. aerug. 130; 12.5 µg/mL (≈ 23.2 µM) in the assay with Serr. marcescens IMM-5; 6.3 µg/mL (≈ 11.7 µM) in the assay on Entero. cloacae IMM-50. In addition, the MIC against Esch. coli JR-76.2 stood at 25 µg/mL (≈ 46.4 µM); in the assay with Pseudo. aerug. G-76, 12.5 µg/mL (≈ 23.2 µM); against Pseudo. aerug. 58.38, 6.3 µg/mL (≈ 11.7 µM); against Staph aureus S18713, 6.3 µg/mL (≈ 11.7 µM); in the assay on Pseudo. aerug. VAD12-7-7, 1.6 µg/mL (≈ 2.97 µM); against Pseudo. aerug. 733 it was 6.3 µg/mL (≈ 11.7 µM). For the same molecule, the figures for the MIC with Klebs. pneumoniae MGH-1, with Pseudo. aerug. UI-18 and in the assay with Pseudo. aerug. LA-3399 were 6.3 µg/mL (≈ 11.7 µM), 6.3 µg/mL (≈ 11.7 µM) and 12.5 µg/mL (≈ 23.2 µM), respectively.

The term MIC denotes the lowest concentration found to suppress growth. High values mean a need for much substance, low ones inhibition by little substance.
